These are literature values, as cited in patent US20180360817A1, “EXTENDED RELEASE OSMOTIC DOSAGE FORM COMPRISING HIGH METHYLPHENIDATE HYDROCHLORIDE LOAD” (CADILA HEALTHCARE LIMITED, priority 2015, published 2018).

Where two headings read alike, the source gives them in different places.

`COC(=O)C(c1ccccc1)C1CCCCN1.Cl` (racemic) [Methylphenidate hydrochloride, d,l (racemic) methyl α-phenyl-2-piperidineacetate hydrochloride]: the Solubility result reads like this: (in acetone) “slightly soluble”; (in alcohol) “soluble”; (in chloroform) “slightly soluble”; (in methanol) “freely soluble”; (in water) “freely soluble”.
